Measured values reported in the supplement of paper PMC11208160.

Assay: recombinant UMI read abundance after kanamycin selection (control-corrected) (log10(CPM+1)); higher = more efficient recombination; extreme values may be limits of the assay; sequences stand for … in AGTGCAGAGAAAATCGGCCAGTTTTCTCTGCCTGCAGTCCGCATGCCGTGGGACCCCTTGGGTTCTAACCTGTTGCCTAGATTTATGCAGCGGACTGCCTTTCTCCCAAAGTGATAAACCGG…AGGTTGGTTTCACT; site = the 11-nt donor
Summary of the method: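 Counts of recombinant UMIs were reported as log10(CPM+1). Before that, they were converted to CPM, averaged over replicates and scaled using control-derived factors. They came from PCR across the donor–target junction after Escherichia coli carrying the pair library and target plasmid was plated on IPTG (0.07 mM) plus kanamycin, or unselected, in two replicates each.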
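Also: IS621 bridge recombinase in Escherichia coli cells against a fixed T5 target plasmid.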

Row | Sequence | recombinant UMI read abundance (log10)
1 | CTTGAAACATGGACCGGTTTTCCCGGTAATCCGTATTTGCA (site CTTGAAACTTG) | 2.07
2 | CTTGACGCATGGACCGGTTTTCCCGGTAATCCGTATTTGGT (site CTTGACGCTAC) | 0.601
3 | CTTGAGTCATGGACCGGTTTTCCCGGTAATCCGTATTTGAT (site CTTGAGTCTAT) | 2.13
4 | CTTGAGTCATGGACCGGTTTTCCCGGTAATCCGTATTTGTT (site CTTGAGTCTAA) | 2.46
5 | CTTGTAACATGGACCGGTTTTCCCGGTAATCCGTATTTGGC (site CTTGTAACTGC) | 0
6 | CTTGTAGCATGGACCGGTTTTCCCGGTAATCCGTATTTGTC (site CTTGTAGCTGA) | 0.797
7 | CTTGTCTCATGGACCGGTTTTCCCGGTAATCCGTATTTGTA (site CTTATCTCTTA) | 1.78
8 | CTTGTCTCATGGACCGGTTTTCCCGGTAATCCGTATTTGTA (site CTTCTCTCTTA) | 0.856
9 | CTTGTCTCATGGACCGGTTTTCCCGGTAATCCGTATTTGTA (site CTTGTCTCTTA) | 2.82
10 | CTTGTCTCATGGACCGGTTTTCCCGGTAATCCGTATTTGTA (site CTTTTCTCTTA) | 0
11 | CTTGTGTCATGGACCGGTTTTCCCGGTAATCCGTATTTGTG (site CTTGTGTCTCA) | 2.16
12 | CTTGTTCCATGGACCGGTTTTCCCGGTAATCCGTATTTGGT (site ATTGTTCCTAC) | 0.0155
13 | CTTGTTCCATGGACCGGTTTTCCCGGTAATCCGTATTTGGT (site CTTGTTCCTAC) | 0.00959
14 | CTTGTTCCATGGACCGGTTTTCCCGGTAATCCGTATTTGGT (site GTTGTTCCTAC) | 0.0201
15 | CTTGTTCCATGGACCGGTTTTCCCGGTAATCCGTATTTGGT (site TTTGTTCCTAC) | 0.0168
16 | CTTTACGCATGGACCGGTTTTCCCGGTAATCCGTATTTGTA (site CTTTACGCTTA) | 0.0146
17 | CTTTAGACATGGACCGGTTTTCCCGGTAATCCGTATTTGAG (site CATTAGACTCT) | 0.351
18 | CTTTAGACATGGACCGGTTTTCCCGGTAATCCGTATTTGAG (site CCTTAGACTCT) | 0
19 | CTTTAGACATGGACCGGTTTTCCCGGTAATCCGTATTTGAG (site CGTTAGACTCT) | 0.118

Row | Sequence | recombinant UMI read abundance (log10)
20 | CTTTAGACATGGACCGGTTTTCCCGGTAATCCGTATTTGAG (site CTTTAGACTCT) | 1.31
21 | CTTTATACATGGACCGGTTTTCCCGGTAATCCGTATTTGTT (site CTTTATACTAA) | 0.121
22 | CTTTATTCATGGACCGGTTTTCCCGGTAATCCGTATTTGCG (site CTTTATTCTCG) | 1.11
23 | CTTTGCCCATGGACCGGTTTTCCCGGTAATCCGTATTTGCT (site CTTTGCCCTAG) | 0.182
24 | CTTTGGGCATGGACCGGTTTTCCCGGTAATCCGTATTTGCC (site CTTTGGGCTGG) | 0
25 | CTTTTATCATGGACCGGTTTTCCCGGTAATCCGTATTTGAC (site CTAGTATCTGT) | 0.225
26 | CTTTTATCATGGACCGGTTTTCCCGGTAATCCGTATTTGAC (site CTTTTATCTGT) | 0.762
27 | GAAAAACCATGGACCGGTTTTCCCGGTAATCCGTATTTGGT (site GAAAAACCTAC) | 0
28 | GAAAAACCATGGACCGGTTTTCCCGGTAATCCGTATTTGGT (site GACAAACCTAC) | 0
29 | GAAAAACCATGGACCGGTTTTCCCGGTAATCCGTATTTGGT (site GAGAAACCTAC) | 0
30 | GAAAAACCATGGACCGGTTTTCCCGGTAATCCGTATTTGGT (site GATAAACCTAC) | 0
31 | GAAAAGGCATGGACCGGTTTTCCCGGTAATCCGTATTTGTC (site GAAAAGGCTGA) | 2.08
32 | GAAACACCATGGACCGGTTTTCCCGGTAATCCGTATTTGAG (site GAAACACCTCT) | 0.0146
33 | GAAAGCCCATGGACCGGTTTTCCCGGTAATCCGTATTTGAC (site GAAAGCCCTGT) | 0
34 | GAAAGCTCATGGACCGGTTTTCCCGGTAATCCGTATTTGCC (site GAAAGCTCTGG) | 2.75
35 | GAAATCTCATGGACCGGTTTTCCCGGTAATCCGTATTTGCG (site GAAATCTCTCG) | 2.44
36 | GAAATGGCATGGACCGGTTTTCCCGGTAATCCGTATTTGAC (site GAAATGGCTGT) | 1.42
37 | GAACAATCATGGACCGGTTTTCCCGGTAATCCGTATTTGCC (site GAACAATCTGG) | 1.67
38 | GAACCGTCATGGACCGGTTTTCCCGGTAATCCGTATTTGTT (site GAACCGTCTAA) | 1

Row | Sequence | recombinant UMI read abundance (log10)
39 | GAACGAACATGGACCGGTTTTCCCGGTAATCCGTATTTGGT (site GAACGAACTAC) | 1.21
40 | GAACTAGCATGGACCGGTTTTCCCGGTAATCCGTATTTGGT (site CGTTGCCCTTA) | 0.00867
41 | GAACTGGCATGGACCGGTTTTCCCGGTAATCCGTATTTGCT (site GAACTGGCTAG) | 0.00438
42 | GAACTTGCATGGACCGGTTTTCCCGGTAATCCGTATTTGAC (site CTTACCACTAA) | 0.0118
43 | GAAGAGACATGGACCGGTTTTCCCGGTAATCCGTATTTGCT (site GAAGAGACTAG) | 2.79
44 | GAAGATGCATGGACCGGTTTTCCCGGTAATCCGTATTTGTT (site GAAGATACTAA) | 1.88
45 | GAAGATGCATGGACCGGTTTTCCCGGTAATCCGTATTTGTT (site GAAGATCCTAA) | 0.286
46 | GAAGATGCATGGACCGGTTTTCCCGGTAATCCGTATTTGTT (site GAAGATGCTAA) | 2.81
47 | GAAGATGCATGGACCGGTTTTCCCGGTAATCCGTATTTGTT (site GAAGATTCTAA) | 0
48 | GAAGATTCATGGACCGGTTTTCCCGGTAATCCGTATTTGGT (site GAAGATTCTAA) | 0.995
49 | GAAGATTCATGGACCGGTTTTCCCGGTAATCCGTATTTGGT (site GAAGATTCTAC) | 3.05
50 | GAAGATTCATGGACCGGTTTTCCCGGTAATCCGTATTTGGT (site GAAGATTCTAG) | 0
51 | GAAGATTCATGGACCGGTTTTCCCGGTAATCCGTATTTGGT (site GAAGATTCTAT) | 1.82
52 | GAAGATTCATGGACCGGTTTTCCCGGTAATCCGTATTTGTA (site GAAGATTCTAA) | 0.349
53 | GAAGATTCATGGACCGGTTTTCCCGGTAATCCGTATTTGTA (site GAAGATTCTCA) | 1.55
54 | GAAGATTCATGGACCGGTTTTCCCGGTAATCCGTATTTGTA (site GAAGATTCTGA) | 0
55 | GAAGATTCATGGACCGGTTTTCCCGGTAATCCGTATTTGTA (site GAAGATTCTTA) | 2.5
56 | GAAGCAGCATGGACCGGTTTTCCCGGTAATCCGTATTTGCT (site AAAGCAGCTAG) | 1.32
57 | GAAGCAGCATGGACCGGTTTTCCCGGTAATCCGTATTTGCT (site CAAGCAGCTAG) | 1.19
